Data on one compound can be found in patent publication US12052991B2, “Substituted pyridinyloxybenzenes and salts thereof and use thereof as herbicidal agents” (Bayer Aktiengesellschaft, priority 2018, dated 2024).

Format in all cases: in vivo
Data set [1] has as its system Matricaria inodora (MATIN). The data set can be described thus: Herbicidal post-emergence action (Table B7). Conditions: 1280 g/ha; rated visually after about 3 weeks; 100% = plants have died, 0% = like control plants. The procedure, abridged:
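Post-emergence spray, one-leaf stage (2–3 wk after sowing), sandy loam, greenhouse. WP/EC in water + 0.5% additive, 600 L/ha, 1280 or 320 g/ha. Visual % activity vs untreated after ~3 wk (0% = like control, 100% = plants dead).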

In data set [2] the test system is Matricaria inodora (MATIN). As to the kind of experiment: Herbicidal pre-emergence action, test C (Table C7). Particulars: visual scoring after about 3 weeks, 100% = plants have died, 0% = like control plants. The gist of the method:
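Greenhouse pre-emergence test: compound formulations (WP or EC) are applied at 1280 or 320 g/ha to the soil surface over sown weed seeds, with 0.5% additive in 600 L/ha water. After about 3 weeks, percent activity is assessed visually, 100% indicating dead plants.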

The next data set relates to Setaria viridis (SETVI). As to the kind of experiment: Herbicidal pre-emergence action, test D, single sowings (Table D3). Particulars: dosage 80 g/ha, scored after about 3 weeks. The source says: (§1) Seeds of monocotyledonous and dicotyledonous weed plants were laid out in plastic or organic plant pots (single sowings with one species of mono- or dicotyledonous weed plant per pot) and covered with soil. The compounds of the invention, formulated in the form of wettable powders (WP) or as emulsion concentrates (EC), were then applied to the surface of the covering soil as aqueous suspension or emulsion with addition of 0.5% additive at a water application rate equivalent to 600 l/ha (converted). After the treatment, the pots were placed in a greenhouse and kept under good growth conditions for the test plants. After about 3 weeks, the effect of the preparations was scored visually in comparison with untreated controls as percentages. For example, 100% activity=the plants have died, 0% activity=like control plants. Tables D1 to D8 below show the effects of selected compounds of the general formula (I) according to Table 1 on various harmful plants and an application rate corresponding to 80 g/ha, which were obtained by the experimental procedure mentioned above.

The test system of data set [3] is Matricaria inodora (MATIN). As to the kind of experiment: Herbicidal pre-emergence action, test D, single sowings (Table D6). Conditions: dosage 80 g/ha, scored after about 3 weeks.
Excerpt: as §1

A further data set deals with viola tricolor (VIOTR). As to the kind of experiment: Herbicidal pre-emergence action, test D, single sowings (Table D7). Conditions: dosage 80 g/ha, scored after about 3 weeks.
Excerpt: as §1

Data set [4] has as its system corn (ZEAMX, var. Aventura). As to the kind of experiment: Pre-emergence crop plant compatibility (Table E1). Particulars: dosage 80 g/ha, scored after about 3 weeks, 0% = like control plants.
Excerpt: as §1, with “crop” for “weed”, “placed” for “laid out”, “pots” for “pots (single sowings with one species of mono- or dicotyledonous weed plant per pot)”, “plants.” for “plants. Tables D1 to D8 below show the effects of selected compounds of the general formula (I) according to Table 1 on various harmful plants and an application rate corresponding to 80 g/ha, which were obtained by the experimental procedure mentioned above.”

For data set [5], the system named is wheat (TRZAS, var. Triso). The data set can be described thus: Pre-emergence crop plant compatibility (Table E1). Particulars: dosage 80 g/ha, scored after about 3 weeks, 0% = like control plants.
Excerpt: as §1, with “crop” for “weed”, “placed” for “laid out”, “pots” for “pots (single sowings with one species of mono- or dicotyledonous weed plant per pot)”, “plants.” for “plants. Tables D1 to D8 below show the effects of selected compounds of the general formula (I) according to Table 1 on various harmful plants and an application rate corresponding to 80 g/ha, which were obtained by the experimental procedure mentioned above.”

The subject of data set [6] is harmful plants ALOMY, DIGSA, SETVI, ABUTH, AMARE, MATIN, VIOTR and VERPE. As to the kind of experiment: Herbicidal pre-emergence action (test D), summary of Tables D1-D8. Conditions: application rate of 80 g of active ingredient per hectare; summary in words.
Excerpt: as §1, with “plants.” for “plants. Tables D1 to D8 below show the effects of selected compounds of the general formula (I) according to Table 1 on various harmful plants and an application rate corresponding to 80 g/ha, which were obtained by the experimental procedure mentioned above.”
Tables D1 to D8 below show the effects of selected compounds of the general formula (I) according to Table 1 on various harmful plants and an application rate corresponding to 80 g/ha, which were obtained by the experimental procedure mentioned above.

Regarding `Fc1cc(Cl)cnc1Oc1cccc(F)c1-c1cc(C(F)F)no1` [Example 1-19], the “Post-emergence action against Matricaria inodora (MATIN)” value in data set [1] is reported as 100%. Also, the “Pre-emergence action against Matricaria inodora (MATIN)” value in data set [2] (dosage 320 g/ha), in data set [2] (dosage 1280 g/ha) and in data set [3] was 100% in each case. The “Pre-emergence action against Setaria viridis (SETVI)” value with Setaria viridis (SETVI) was found to be 100%. The “Pre-emergence action against viola tricolor (VIOTR)” value with viola tricolor (VIOTR) was determined as 100%. Moreover, in data set [4], the “Crop plant compatibility in pre-emergence, ZEAMX (damage to corn)” value amounted to 10%. For the same compound, the “Crop plant compatibility in pre-emergence, TRZAS (damage to wheat)” value in data set [5] came out at 30%. Moreover, the “herbicidal activity against the harmful plants of Tables D1-D8 in pre-emergence treatment” value in data set [6] was “very good herbicidal activity”.
